Patent US9328397B2, “Removal of arsenic using a dissimilatory arsenic reductase” (UNIWERSYTET WARSZAWSKI, priority 2013, dated 2016)

Assays:
[1] = system: Shewanella sp. O23S strain; test: Minimal inhibitory concentration (MIC) of heavy metals in LB medium; format: cell-based; details: 24 hours at 22° C., OD600
[2] = system: Shewanella sp. O23S strain; test: Dissimilatory reduction of 2.5 mM sodium arsenate in the presence of heavy metals; format: cell-based; details: minimal R1-R2 medium; for Reduction of arsenic in the presence of the metal (maximum concentration of metals allowing for dissimilatory reduction of 2.5 mM sodium arsenate): 5 mM sodium lactate

Structure (SMILES) | MIC value [1] [mM] | Reduction of arsenic in the presence of the metal (maximum concentration of metals allowing for dissimilatory reduction of 2.5 mM sodium arsenate) [2] [mM] | capability of dissimilatory reduction in the presence of the metal [2]
O.O.O.O.O.O.O.O.O=S(=O)([O-])[O-].[Cd+2] [Cd(II), CdSO4•8H2O] | 1 | 1 | –
O.O.O.O.O.O.O.O=S(=O)([O-])[O-].[Co+2] [Co(II), CoSO4•7H2O] | 2 | 2 | –
O.O.O.O.O.O.O.O.O.O.O.O.O.O.O.O.O.O.O=S(=O)([O-])[O-].O=S(=O)([O-])[O-].O=S(=O)([O-])[O-].[Cr+3].[Cr+3] [Cr(III), Cr2(SO4)3•18H2O] | 5 | 3 | –
O.O.O.O.O.O=S(=O)([O-])[O-].[Cu+2] [Cu(II), CuSO4•5H2O] | 3 | 2 | –
[Fe+3] [Fe(III)] | 5 | – | not demonstrated
O.O=S(=O)([O-])[O-].[Mn+2] [Mn(II), MnSO4•H2O] | >20 | >5 | –
O.O.O.O.O.O.O.O.O.O.O=[Se](=O)([O-])[O-].[Na+].[Na+] [Se(VI), Na2SeO4•10H2O] | >20 | 5 | –
[Na+].[O]=[V](=[O])[O-] [V(V), NaVO3] | >20 | >5 | –
O.O.O.O.O.O.O.O=S(=O)([O-])[O-].[Zn+2] [Zn(II), ZnSO4•7H20] | 3 | 2 | –
